Data on 54 compounds can be found in patent US5156955A, “Nucleoside oxidase and assay method utilizing same” (priority 1988, dated 1992).

Assay type in all cases: biochemical, Pseudomonas maltophilia LB-86
The subject of test [1] is nucleoside oxidase YT-1. As to the kind of experiment: Substrate specificity test (nucleoside oxidase activity, oxygen consumption). The following applies: for Relative activity: relative to activity on inosine taken as 100; for Substrate specificity (enzyme active / not active on substance): statement in words.
Method: The consumption of 1 μM of oxygen per minute is taken as 1 unit (U).
The subject of test [2] is nucleoside oxidase YT-1. As to conditions: for Effect of inhibitor (enzyme inhibited): statement in words. The method, then: A solution of the present enzyme (0.02 U) was caused to act on inosine at pH 6.0 and 25° C. for 10 minutes in the presence of various inhibitors, and the enzymatic activity was thereafter measured.
In test [3] the test system is nucleoside oxidase YT-1. Nature of the test: Influence of metal ions on the activity. The following applies: enzyme 0.02 U on inosine, pH 6.0, 25° C., 10 minutes. The method, then: A solution of the enzyme (0.02 U) was caused to act on inosine at pH 6.0 and 25° C. for 10 minutes in the presence of various metal ions, and the activity of the enzyme was thereafter measured to check the influence of the metal ions on the activity.

Test [4] concerns nucleoside oxidase YT-1. Nature of the test: Enzymatic activity test I: oxidation reaction products and stoichiometry. The following applies: for change on reaction with the enzyme sample (HPLC): peak separated off by HPLC and reacted with enzyme. The method, then:
During a reaction period of 0 to 800 minutes, the reaction muxture was partly collected at suitable time intervals and analyzed by high performance liquid chromatography (HPLC) with a column of Fine SIL C18 (product of Japan Spectroscopic Co., Ltd.) using as a solvent 50 mM phosphate buffer (pH 3.0)/methanol=95/5 at a flow rate of 1.5 ml/min. Absorption was detected at 260 nm.
The amount of oxygen consumption was determined by an oxygen electrode, the amount of P-2 produced from the peak area of HPLC, and the amount of hydrogen peroxide by the phenol-4-aminoantipyrine peroxidase method and the ferrithiocyanide method (Ronald Thurman et al., Eur. J. Biochem., 25, 420-430 (1972)).

Test [5] concerns nucleoside oxidase YT-1. Nature of the test: Specificity test on laccase substrate (laccase-like activity in presence of inosine). The following applies: 1 mM laccase substrate, 7 mM inosine, one unit enzyme, 5 minutes. The method, then:
The present enzyme was tested for the substrate specificity of its laccase-like activity in the presence of 7 mM inosine in the following manner. One unit of the present enzyme was added to a specimen containing 7 mM of inosine and 1 mM of the laccase substrate shown in Table 5, and the mixture was allowed to stand for 5 minutes. The absorption spectrum of the specimen was obtained before and after the addition of the enzyme.

[6] abbreviates: inhibitor 1 mM, enzyme 0.02 U on inosine, pH 6.0, 25° C., 10 minutes.
[7] abbreviates: inhibitor 10 mM, enzyme 0.02 U on inosine, pH 6.0, 25° C., 10 minutes.
[8] abbreviates: nucleoside oxidase yt-1, pH 6, 10 min, 1000 µM.

Where two headings read alike, the source gives them in different places.

As for `Nc1nc2nc[nH]c2c(=O)[nH]1` [Guanine], in the test on nucleoside oxidase YT-1 [1] (substrate 0.4 mM), the Relative activity stood at 0%. As to `CCN(CC)C(=S)S` [Sodium N,N'-Diethylditiocarbamate, Sodium N,N'-Diethylditio-carbamate], the Relative activity in the test with nucleoside oxidase YT-1 [2] (setting [6]) is given as 271%. Regarding `O=c1ccn([C@@H]2O[C@H](CO)[C@@H](O)[C@H]2O)c(=O)[nH]1` [Uridine], in the test with nucleoside oxidase YT-1 [1] (substrate 10 mM), the Relative activity amounted to 92.8%. Still for that read-out and setting: under `Nc1ccn([C@@H]2O[C@H](CO)[C@@H](O)[C@H]2O)c(=O)n1` [Cytidine] stands 77.5%. For the compound `NN.O=S(=O)(O)O` [Hydrazine sulfate], the Relative activity in the test with nucleoside oxidase YT-1 [2] (setting [6]) was found to be 101%.

For the compound `O=S(=O)([O-])[O-].[Fe+2]` [FeSO4], the Relative activity in the test on nucleoside oxidase YT-1 [3] (metal salt 0.1 mM) is listed as 93.4%. As to `[Cl][Hg][Cl]` [HgCl2], the Relative activity with nucleoside oxidase YT-1 [2] (setting [6]) is reported as 69.2%. For `O=S(=O)([O-])[O-].[Mg+2]` [MgSO4], the Relative activity with nucleoside oxidase YT-1 [3] (metal salt 0.1 mM) worked out at 102%. `NO` [Hydroxylamine]: the Relative activity in the test on nucleoside oxidase YT-1 [2] (setting [6]) was determined as 87.8%; in the test with nucleoside oxidase YT-1 [2] (setting [7]), 63.2%.

Take `O=S(=O)([O-])[O-].[Zn+2]` [ZnSO4]: the Relative activity in the test with nucleoside oxidase YT-1 [3] (metal salt 0.1 mM) is 106%; in the test with nucleoside oxidase YT-1 [3] (metal salt 1.0 mM), 98.9%. With `O=c1[nH]c(=O)c2ncn([C@@H]3O[C@H](CO)[C@@H](O)[C@H]3O)c2[nH]1` [Xanthosine], the Relative activity in the test on nucleoside oxidase YT-1 [1] (substrate 10 mM) turned out to be 125%. For `CC(=O)[O-].CC(=O)[O-].[Pb+2]` [Pb(CH3 COO)2], in the test with nucleoside oxidase YT-1 [2] (setting [6]), the Relative activity is 81.3%.

As for `c1cnc2c(c1)ccc1cccnc12` [o-Phenanthroline], in the test on nucleoside oxidase YT-1 [2] (setting [6]), the Relative activity worked out at 94.7%. For the compound `O=C1CCC(=O)N1Br` [N-Bromosuccinimide], the Relative activity with nucleoside oxidase YT-1 [2] (setting [6]) amounted to 0%. The “Effect of inhibitor (enzyme inhibited)” value in the test with nucleoside oxidase YT-1 [2] is on record as “inhibited”. As to `Nc1ncnc2c1ncn2[C@@H]1O[C@H](COP(=O)(O)O)[C@@H](O)[C@H]1O` [5'-AMP, 5'-adenosine monophosphate], the Relative activity in the test with nucleoside oxidase YT-1 [1] (substrate 10 mM) is 0%.

On to `O=c1cc[nH]c(=O)[nH]1` [Uracil], for which, in the test on nucleoside oxidase YT-1 [1] (substrate 20 mM), the Relative activity turned out to be 0%. `[N-]=[N+]=[N-]` [Sodium azide]: the results for the Relative activity in the test on nucleoside oxidase YT-1 [2] (setting [6]) and in the test on nucleoside oxidase YT-1 [2] (setting [7]) were 81.5% and 45.6%, respectively. For the same compound, in the test with nucleoside oxidase YT-1 [2], the “Effect of inhibitor (enzyme inhibited)” value is given as “inhibited”. Consider `Nc1nc2c(ncn2[C@@H]2O[C@H](COP(=O)(O)O)[C@@H](O)[C@H]2O)c(=O)[nH]1` [5'-GMP], for which, in the test with nucleoside oxidase YT-1 [1] (substrate 10 mM), the Relative activity is given as 0%. With `O=C[C@H]1O[C@@H](n2cnc3c(=O)[nH]cnc32)[C@H](O)[C@@H]1O` [P-1, inosine-5'-aldehyde], the oxygen consumption with nucleoside oxidase YT-1 [4] (100 nanomoles of P-1, one U enzyme, 1 ml 100 mM phosphate buffer) was 48 nmol. For the same compound, the hydrogen peroxide formed result in the test on nucleoside oxidase YT-1 [4] (100 nanomoles of P-1 as substrate) is listed as “No hydrogen peroxide was detected”. Further, the P-2 produced in the test with nucleoside oxidase YT-1 [4] (from 100 nanomoles of P-1, one U enzyme) is 97 nmol. Further, in the test with nucleoside oxidase YT-1 [4], the “change on reaction with the enzyme sample (HPLC)” value is on record as “changed into P-2 with consumption of oxygen”. Mercury p-chorobenzoate: the Relative activity in the test on nucleoside oxidase YT-1 [2] (setting [6]) stood at 98.9%. Regarding `c1ccc(-c2ccccn2)nc1` [α,α'-Dipyridyl], in the test on nucleoside oxidase YT-1 [2] (setting [6]), the Relative activity came out at 96.7%. For `Nc1ncnc2c1ncn2[C@@H]1O[C@H](CO)[C@@H](O)[C@H]1O` [Adenosine], the Relative activity in the test with nucleoside oxidase YT-1 [1] (substrate 10 mM) stood at 97.3%. For the compound `O=C(O)CN(CCN(CC(=O)O)CC(=O)O)CC(=O)O` [EDTA], the Relative activity in the test with nucleoside oxidase YT-1 [2] (setting [8]) is 101%. With `O=P(O)(O)OC[C@H]1OC(O)[C@H](O)[C@@H]1O` (stereo partly drawn) [D-ribose-5-phosphoric acid], in the test on nucleoside oxidase YT-1 [1] (substrate 20 mM), the Relative activity is reported as 0%.

For the compound `O=c1[nH]cnc2nc[nH]c12` [Hypoxanthine], the “Substrate specificity (enzyme active / not active on substance)” value with nucleoside oxidase YT-1 [1] is on record as “not active”. Besides, the Relative activity in the test on nucleoside oxidase YT-1 [1] (substrate 5.2 mM) turned out to be 0%. With `Cc1c[nH]c(=O)[nH]c1=O` [Thymine], the Relative activity in the test with nucleoside oxidase YT-1 [1] (substrate 20 mM) is reported as 0%. In the case of `N#CO` [Potassium cyanate], the Relative activity in the test on nucleoside oxidase YT-1 [2] (setting [6]) was found to be 34.8%; with nucleoside oxidase YT-1 [2] (setting [7]), 0%. Further, the “Effect of inhibitor (enzyme inhibited)” value in the test with nucleoside oxidase YT-1 [2] was “inhibited”; with nucleoside oxidase YT-1 [2] (listed as potassium cianate) it was “Inhibited”. Regarding `Nc1ncnc2c1ncn2[C@H]1C[C@H](O)[C@@H](CO)O1` [Deoxyadenosine], the Relative activity in the test with nucleoside oxidase YT-1 [1] (substrate 10 mM) came to 81.4%. For `O=S(=O)(F)Cc1ccccc1` [Phenylmethylsulfonyl fluoride], the Relative activity in the test on nucleoside oxidase YT-1 [2] (setting [6]) was 95.3%.

For `Cc1cn([C@H]2C[C@H](O)[C@@H](CO)O2)c(=O)[nH]c1=O` [Thymidine], the Relative activity in the test with nucleoside oxidase YT-1 [1] (substrate 10 mM) was 55.8%. As to `Oc1cccc(O)c1O` [Pyrogallol], the “Change in absorption spectrum due to reaction” value (from here on “Change … to reaction”) in the test on nucleoside oxidase YT-1 [5] is on record as “New peak at 370 nm”. Turning to `Nc1nc2c(ncn2[C@@H]2O[C@H](CO)[C@@H](O)[C@H]2O)c(=O)[nH]1` [Guanosine], in the test with nucleoside oxidase YT-1 [1] (substrate 10 mM), the Relative activity is on record as 121%. Same read-out and setting: next, `Nc1ncnc2c1ncn2[C@@H]1O[C@H](COP(=O)(O)OP(=O)(O)OP(=O)(O)O)[C@@H](O)[C@H]1O` [5'-ATP]: 0%.

Take `O=C(O)/C=C/c1ccc(O)c(O)c1` [Caffeic acid]: the “Change … to reaction” value with nucleoside oxidase YT-1 [5] is recorded as “New peak at 310 nm”. Regarding `O=CC[C@H](O)[C@H](O)CO` [2-Deoxy-D-ribose], the Relative activity in the test on nucleoside oxidase YT-1 [1] (substrate 20 mM) turned out to be 0%. For `Nc1ncnc2c1ncn2[C@@H]1O[C@H](COP(=O)(O)OP(=O)(O)O)[C@@H](O)[C@H]1O` [5'-ADP], the Relative activity in the test on nucleoside oxidase YT-1 [1] (substrate 10 mM) was found to be 0%. Turning to `O=P(O)(O)OC1O[C@H](CO)[C@@H](O)[C@H]1O` (stereo partly drawn) [D-ribose-1-phosphoric acid], the Relative activity with nucleoside oxidase YT-1 [1] (substrate 20 mM) is reported as 0%. For the compound `O=c1[nH]c(=O)c2[nH]cnc2[nH]1` [Xanthine], the Relative activity in the test on nucleoside oxidase YT-1 [1] (substrate 0.4 mM) is recorded as 0%. Turning to `O=C1C=CC(=O)C=C1` [p-Quinone], the “Change … to reaction” value in the test on nucleoside oxidase YT-1 [5] was “No change”. As for `Nc1ccc(O)cc1` [p-Aminophenol], the “Change … to reaction” value with nucleoside oxidase YT-1 [5] is given as “New peak at 360 nm”. Take `[Cl-].[Cl-].[Co+2]` [CoCl2]: the Relative activity in the test on nucleoside oxidase YT-1 [3] (metal salt 0.1 mM) is listed as 103%.

Take `Cc1cn([C@H]2C[C@H](O)[C@@H](CO)O2)c(=O)[nH]c1=O` [Deoxythymidine]: the Relative activity in the test on nucleoside oxidase YT-1 [1] (substrate 10 mM) turned out to be 77.3%. As to `O=C[C@H](O)[C@H](O)[C@H](O)CO` [D-ribose], in the test with nucleoside oxidase YT-1 [1], the “Substrate specificity (enzyme active / not active on substance)” value is given as “not active”. Moreover, in the test with nucleoside oxidase YT-1 [1] (substrate 20 mM), the Relative activity turned out to be 0%. Take `Nc1ccc(N)cc1` [p-Phenylendiamine]: in the test on nucleoside oxidase YT-1 [5], the “Change … to reaction” value is given as “New peak at 490 nm”. Turning to `O=C(O)CI` [Iodoacetic acid], the Relative activity with nucleoside oxidase YT-1 [2] (setting [8]) is listed as 100%. `O=S(=O)([O-])[O-].[Mn+2]` [MnSO4]: in the test on nucleoside oxidase YT-1 [3] (metal salt 0.1 mM), the Relative activity is listed as 103%.

Consider `O=C(O)[C@H]1O[C@@H](n2cnc3c(=O)[nH]cnc32)[C@H](O)[C@@H]1O` [P-2, inosine-5'-carboxylic acid], for which the “change on reaction with the enzyme sample (HPLC)” value in the test on nucleoside oxidase YT-1 [4] is “exhibited no change”. Take `CCN(CC)CCCC(C)Nc1c2ccc(Cl)cc2nc2ccc(OC)cc12` (centres unmarked) [Quinacrine]: the Relative activity in the test with nucleoside oxidase YT-1 [2] (setting [6]) was determined as 95.6%. `Nc1nc2c(ncn2[C@H]2C[C@H](O)[C@@H](CO)O2)c(=O)[nH]1` [Deoxyguanosine]: the Relative activity in the test with nucleoside oxidase YT-1 [1] (substrate 10 mM) is recorded as 92.3%.

Consider `Nc1cc[nH]c(=O)n1` [Cytosine], for which the Relative activity with nucleoside oxidase YT-1 [1] (substrate 20 mM) was determined as 0%. For `Nc1ncnc2nc[nH]c12` [Adenine], the Relative activity in the test with nucleoside oxidase YT-1 [1] (substrate 10 mM) is given as 0%. Same read-out and setting: under `OC[C@H]1O[C@@H](n2cnc3c(O)ncnc32)C[C@@H]1O` [Deoxyinosine] stands 80.7%. As for `Cc1cc(O)cc(O)c1` [Orcinol], the “Change … to reaction” value in the test on nucleoside oxidase YT-1 [5] is listed as “New peak at 340 nm”. In the case of (NH4)6 Mo7 O24, the values for the Relative activity in the test on nucleoside oxidase YT-1 [3] (metal salt 0.1 mM) and with nucleoside oxidase YT-1 [3] (metal salt 1.0 mM) were 106% and 102%, respectively.
